Here are results for 3 molecules from publication PMC10863309 (Redox Biology, 2024).

By IC50 is commonly meant the concentration that gives 50% inhibition.

Where “and” joins values, the source holds several entries; their conditions need not be identical. Identical values can stand only once. Like-named read-outs stand apart in the source and are kept apart here. Where only a bound is given, the exact number is not on record here.

For test [1], the system named is BV2 cells. The test can be described thus: MTT cell viability assay. The class given is cell-based, mouse. (In general: Tetrazolium assays rely on reduction of a dye to a coloured formazan, in cell work by metabolically active cells.)
Test [2] deals with LPS-induced NO release of BV2 microglial cells. The test can be described thus: Nitrite quantification. The note with it: 1 h pretreatment, LPS 800 ng/ml 24 h. The class given is cell-based, mouse.
Setting [3] is: Mus musculus, BV-2, read-out: Cell viability IC50.

As to `CC[C@]12C=CCN3CC[C@]4(C(=C(C(=O)OC)C1)Nc1ccccc14)[C@@H]32` [Compound 7, tabersonine], the IC50 in test [1] (setting [3]) was 16.1 ± 1.1 µM. For the same molecule, in test [2], the “NO Inhibition (% of LPS) LPS/drugs (0.7 μM)” value is 18.8 ± 7.0 % of LPS and the “NO Inhibition (% of LPS) LPS/drugs (1.5 μM)” value is 29.3 ± 3.1 % of LPS. The “NO Inhibition (% of LPS) LPS/drugs (3 μM)” value in test [2] (3 μM) is reported as 45.9 ± 2.4 % of LPS.
With `C[C@@H]1C[C@H]2[C@@H]3CCC4=CC(=O)C=C[C@]4(C)[C@@]3(F)[C@@H](O)C[C@]2(C)[C@@]1(O)C(=O)CO` [Dexamethasone, reference compound], in test [1] (setting [3]), the IC50 is more than 100 µM. Further, the “NO Inhibition (% of LPS) LPS/drugs (12 μM)” value in test [2] (12 μM) is listed as 61.9 ± 4.7 % of LPS. The “NO Inhibition (% of LPS) LPS/drugs (25 μM)” value in test [2] (25 μM) was 71.1 % of LPS and 71.1 ± 3.0 % of LPS. In addition, the “NO Inhibition (% of LPS) LPS/drugs (50 μM)” value in test [2] (50 μM) is recorded as 75.1 ± 1.9 % of LPS.
Take lochnericine [Compound 2]: the IC50 in test [1] (read-out: Cell viability IC50, BV2 microglial cells) was found to be 28.7 ± 1.2 µM. For the same molecule, in test [2], the “NO Inhibition (% of LPS) LPS/drugs (0.7 μM)” value is reported as 11.2 ± 2.0 % of LPS and the “NO Inhibition (% of LPS) LPS/drugs (1.5 μM)” value was 31.3 ± 3.2 % of LPS.
